Source: patent US10913772B2, “Peptide for preventing or treating inflammatory diseases and use thereof” (KINE SCIENCES Co., Ltd., priority 2016, dated 2021)
“And” between values parts separate entries of the source, which are not always exact repeats. Equal values may be shown once. No end group written: not given here.

How the values were obtained:
[1] = Evaluation of toxicity: mortality and change in body weight of mouse; type: in vivo; settings: for Body weight: i.p., individual mice
Experimental: In Example 3, in order to confirm the toxicity of the peptide of the present invention, the RGD dimer was intraperitoneally administered to mouse at various concentrations (0.1 μmole, 1 μmole, and 10 μmole), and then the mortality and a change in body weight of each mouse were measured. On the other hand, as a control, a non-administration group (Normal) and a PBS-treated group (PBS) were used.

[2] = tested on: collagen-induced arthritis (CIA) mouse model; experiment: Arthritis progression index in collagen-induced arthritis mouse model; type: in vivo, mouse (DBA/1J); design: key: 0-4 per leg, summed over four legs (0-16), mean of two observers; settings: Table 3, methotrexate 1 mg/kg
Experimental: In Example 2, using a collagen-induced arthritis mouse model in the following document, a therapeutic effect of a RGD dimer for a representative inflammatory disease, rheumatoid arthritis was confirmed (Nat Protoc. 2007; 2(5):1269-75.).
A collagen-induced arthritis (CIA) mouse model was prepared as follows, as an autoimmune disease-based arthritis model with characteristics similar to human rheumatoid arthritis.
First, a bovine type II collagen (Chondrex Corporation, USA) and a Freund's complete adjuvant (Chondrex Corporation, USA) were mixed at a ratio of 1:1 and emulsified, and then 50 μl of the emulsified collagen solution was injected intradermally into the tail of a 6-week-old DBA/1J mouse to induce primary immunization. At two weeks after the primary immunization, the bovine type II collagen and the Freund's complete adjuvant were mixed at a ratio of 1:1 and emulsified, and then 50 μl of the emulsified collagen solution was injected intradermally into the tail of the mouse again to induce secondary immunization (boosting).
After the secondary immunization, from the next day, the peptide of the present invention ([…] (1 μmole)) was administered intraperitoneally three times a week and a PBS-treated group was used as a control (Vehicle control). The preparation process of the collagen-induced arthritis mouse model and the administration time of the peptide were schematically illustrated in FIG. 1.
In order to investigate the development of arthritis progression according to the peptide treatment of the present invention, the deepening degree of arthritis with time was measured by evaluating an arthritis progression index. Two observers who were unaware of the specific experimental conditions evaluated progression of arthritis three times a week. In this case, the arthritis progression index was evaluated by 0 to 4 scores per leg according to an arthritis progression evaluation standard by Rossoliniec and the like in Table 1 below to be represented by a total of 0 to 16 scores (a sum of four legs), and thereafter, two observers calculated an average value of the evaluated results to digitize the severity of arthritis.
In order to confirm the efficacy for each treatment concentration of the peptide according to the present invention, by using the same method as Example 2-2, an arthritis therapeutic effect according to the peptide treatment at various concentrations (0.1 μmole, 1 μmole, and 10 μmole) was evaluated by the arthritis progression index.
Methotrexate (MTX), one of drugs which are used as arthritis therapeutic agents in a current clinical practice, had excellent anti-inflammatory and arthritis therapeutic effects as an immunodepressant, but may have side effects such as toxicity to normal cells, oral ulcer, alopecia, interstitial pneumonia, bone marrow suppression, and the like. As a result, the methotrexate is known as a drug that needs to pay close attention after medication with sufficient medication counseling. As a result, the arthritis therapeutic effect according to the peptide treatment at various concentrations was compared with that of the case of treating methotrexate (1 mg/kg).

## RDGRDG [RDG dimer, RDGRDG]
[1]; 0.1 μmole, 1 μmole or 10 μmole, intraperitoneally
  mortality of the mouse: not observed
[1]; 10 umole, day 17
  Body weight: 23.74 g and 20.75 g and 18.48 g
[1]; 10 umole, day 21
  Body weight: 23.8 g and 21.9 g and 20.5 g
[1]; 10 umole, day 24
  Body weight: 24.2 g and 22 g and 20.1 g
[1]; 10 umole, day 27
  Body weight: 23.8 g and 21.6 g and 20.5 g
[1]; 10 umole, day 31
  Body weight: 23.9 g and 22 g
[1]; 10 umole, day 34
  Body weight: 24.8 g and 22.3 g
[1]; all the concentrations (0.1, 1 and 10 μmole), intraperitoneally
  difference in body weight from the control: did not have a large difference
[1]; first group printed 1 umole, day 17
  Body weight: 21.65 g and 24.51 g and 18.25 g and 21.88 g and 22.3 g and 21.96 g and 18.84 g
[1]; first group printed 1 umole, day 21
  Body weight: 21.8 g and 24.5 g and 18.4 g and 21.5 g and 22 g (2×) and 19.6 g
[1]; first group printed 1 umole, day 24
  Body weight: 21.8 g and 24.9 g and 18.2 g and 22.4 g and 22.8 g and 21.3 g and 20.6 g
[1]; first group printed 1 umole, day 27
  Body weight: 22.2 g and 25 g and 18.1 g and 22.7 g and 22.9 g and 21.3 g and 20.5 g
[1]; first group printed 1 umole, day 31
  Body weight: 22.4 g and 25.3 g and 18.8 g and 22.3 g and 22.6 g and 21.2 g and 20.7 g
[1]; first group printed 1 umole, day 34
  Body weight: 23.1 g (2×) and 26.1 g and 19 g and 23 g and 22.6 g and 21.8 g
[1]; second group printed 1 umole, day 17
  Body weight: 22.7 g (2×) and 21.3 g and 18.96 g and 20.63 g and 20.61 g and 21.07 g
[1]; second group printed 1 umole, day 21
  Body weight: 22.3 g and 22.4 g and 19.6 g and 20.6 g and 21.1 g and 21.3 g and 22.6 g
[1]; second group printed 1 umole, day 24
  Body weight: 23.9 g and 22.2 g and 20 g and 20.8 g and 21.4 g and 21.7 g and 23.2 g
[1]; second group printed 1 umole, day 27
  Body weight: 24.4 g and 22.3 g and 20.1 g and 21.2 g and 21.3 g and 21.7 g and 23.3 g
[1]; second group printed 1 umole, day 31
  Body weight: 22.6 g and 22.7 g and 20.2 g and 20.1 g and 21.3 g and 22.2 g and 23.4 g
[1]; second group printed 1 umole, day 34
  Body weight: 23 g and 23.6 g and 20.5 g and 18.6 g and 20.6 g and 22.5 g and 24.2 g

## CN(Cc1cnc2nc(N)nc(N)c2n1)c1ccc(C(=O)N[C@@H](CCC(=O)O)C(=O)O)cc1 [MTX, methotrexate]
[2]; day 20
  arthritis progression index: 0.8
[2]; day 22
  arthritis progression index: 0.8
[2]; day 24
  arthritis progression index: 1.0
[2]; day 27
  arthritis progression index: 1.2
[2]; day 29
  arthritis progression index: 1.4
[2]; day 31
  arthritis progression index: 1.8
[2]; day 34
  arthritis progression index: 1.8
[2]; day 36
  arthritis progression index: 3.2
